# Results reported in publication PMC7647111, “Antileishmanial compounds from Connarus suberosus: Metabolomics, isolation and mechanism of action” (PLoS ONE, 2020).
# Several values for one entry are separate records, joined by “and”; a condition that tells them apart may be missing. Equal entries are not always repeated.
# Columns and labels:
# [1] = tested on: L. amazonensis promastigotes; assay: Cell membrane integrity (propidium iodide); type: cell-based, Leishmania amazonensis; conditions: 24 h; 2 at 33.8 μM, 3 at 11.4 μM
# Description: Plates were incubated with propidium iodide (PI) (1.0 μg/mL—Sigma-Aldrich, USA, St. Louis, MO, USA) for 15 min in the dark at RT. Fluorescence was measured using a spectrofluorometer (FLx800, BioTek Instruments, Inc., Winooski, VT, USA) with 540/600 nm excitation/emission. Parasites heated at 65 °C were used as the positive control.
# [2] = tested on: L. amazonensis promastigotes; assay: Antiproliferation assay: L. amazonensis promastigotes (24 h), resazurin; type: cell-based, Leishmania amazonensis (IFLA/BR/1967/PH8); conditions: Leishmania amazonensis, 24 h of exposure, read-out: IC50
# Description: (§1) Leishmania amazonensis promastigotes (IFLA/BR/1967/PH8) for the 24 h exposure test were cultivated in RPMI 1640, supplemented with 20% v/v heat inactivated fetal bovine serum (FBS) and incubated at 26°C until near the end of the log growth phase. Leishmania amazonensis (IFLA/BR/1967/PH8) and L. infantum (MCAN/BR/2008/1112) promastigotes used in the 72 h exposure test were cultivated in Warren’s medium (containing brain heart infusion- BHI plus hemin and folic acid), supplemented with 10% FBS, 0.1% of the antibiotics: 100 UI/mL penicillin G and 0.1 mg/mL streptomycin. Leishmania amazonensis (IFLA/BR/1967/PH8) transfected with the red fluorescent protein (RFP) gene was cultured in M199 medium (containing 0.1 mmol/L adenine, 40 mmol/L hepes, 0.0005% hemin and 0.0002% biotin), supplemented with 10% FBS, and 0.1% of the antibiotic. Parasites were maintained at 25°C in a BOD incubator.
# Extracts and fractions were tested against L. amazonensis (IFLA/BR/1967/PH8) promastigote cells in a 96-well plate at a concentration of 10^6 cells/well. Each sample was solubilized in DMSO (<1%) since it was not soluble directly in the medium. Extracts were tested at 100 μg/mL and 50 μg/mL. […] Plates were read at 570 nm and 595 nm in a microplate reader (BiochromAsys UVM 340) after cell lysis with sodium dodecyl sulfate (SDS). Viability was calculated based on the equations described by Kulshrestha.
# [3] = tested on: L. amazonensis promastigotes; assay: Neutral lipid quantification (Nile Red); type: cell-based, Leishmania amazonensis; conditions: 24 h; 2 at 33.8 μM, 3 at 11.4 μM
# Description: After 24 h of exposure, the parasites (1x10^7 cells/well) were stained with 10 μg/mL Nile Red (Sigma-Aldrich, St. Louis, MO, USA) in the dark for 20 min at 25°C. Fluorescence intensity was analysed in a spectrofluorometer (BioTek Instruments, Inc., Winooski, VT, USA) using 485/528 nm excitation/emission.
# Cytotoxicity assay (MTT) = type: cell-based, BALB/c mice; conditions: female, BALB/c, mouse, murine peritoneal macrophages; 72 h exposure
# Description: Female BALB/c mice pre-inoculated with 3% thioglycollate medium were used to obtain macrophages from the peritoneal cavity. Peritoneal exudate was collected 72 h post-inoculation using cold Hank´s Balanced Salt Solution and the assay performed as previously reported. Briefly, peritoneal macrophages in RPMI 1640 medium were transferred to a 96-well plate (2x10^5 cells/well) and incubated at 37°C in 5% CO2 for 24 h to allow adhesion. Samples were serially diluted (100 μg/mL to 0.78 μg/mL), added to the plate with the cells and incubated under the same conditions for 72 h. MTT (10 μL/well) was subsequently added and the plates re-incubated for a further 2 h. To halt the reaction, 100 μL of acidified isopropanol was added to each well. The plate was then read at 570 nm in a microplate reader (Multiskan MS, LabSystems Oy, Helsinki, Finland).
# [4] = tested on: L. amazonensis amastigotes; assay: L. amazonensis amastigotes assay (RFP parasites in peritoneal macrophages); type: cell-based, Leishmania amazonensis (IFLA/BR/1967/PH8)
# Description: Peritoneal macrophages obtained from BALB/c mice were transferred to a 24-well plate (6x10^5 cells/well) in RPMI 1640 medium supplemented with 10% inactivated FBS and 20 mM L-glutamine, pH 7.2. The plate was incubated at 37°C in 5% CO2 for 24 h. After this period, macrophages were infected with L. amazonensis (IFLA/BR/1967/PH8) transfected with RFP in the stationary growth phase using a ratio 1:10 (macrophages/parasites) at 33°C for 4 h. The non-phagocytosed parasites were subsequently removed by extensive PBS wash, and samples added at non-toxic concentrations, in accordance with the cytotoxicity tests (100 μg/mL to 1.56 μg/mL) to determine the IC50 for the intracellular parasite. After 72 h, the supernatant was removed from the wells and 200 μL of deionized water added to each well to lyse the cell membrane. After lysis, the resulting supernatants were transferred to a black 96-well plate. The plate was read in a fluorescence spectrophotometer (FLx800, BioTek Instruments, Inc., Winooski, VT, USA) with 540/600 nm of excitation/emission. Wells containing macrophages infected with L. amazonensis (RFP) […] only were used as negative controls.
# [5] = tested on: L. amazonensis promastigotes; assay: Antiproliferation assay: L. amazonensis promastigotes (72 h), MTT; type: cell-based, Leishmania amazonensis (IFLA/BR/1967/PH8); conditions: Leishmania amazonensis; 72 h exposure
# Description: as §1
# Extracts and isolated compounds were tested against L. amazonensis promastigotes (IFLA/BR/1967/PH8 strain - 2x10^5 cells/well) and L. infantum promastigotes (MCAN/BR/2008/1112 strain - 3x10^5 cells/well). The samples were solubilized in DMSO (<1%), serially diluted (100 μg/mL to 1.56 μg/mL) and tested in a 96-well plate to obtain a dose-response curve. Miltefosine and DMSO were used as positive and negative controls, respectively. After 72 h, 10 μL of 3-(4,5-dimethylthiazol-2-yl)-2,5-diphenyl tetrazolium bromide (5 mg/mL—MTT, Sigma-Aldrich) solution was added to each well and the plate returned to the incubator for an additional 4 h. To halt the reaction, 100 μL acidified isopropanol was added to each well. Plates were read at 570 nm in a microplate reader (Multiskan MS, LabSystems Oy, Helsinki, Finland).
# [6] = tested on: L. amazonensis promastigotes; assay: Reactive oxygen species (ROS) detection (H2DCFDA); type: cell-based, Leishmania amazonensis; conditions: 24 h; 2 at 33.8 μM, 3 at 11.4 μM
# Description: Fluorescence intensity was detected using a fluorimetric microplate reader (FLx800, BioTek Instruments, Inc., Winooski, VT, USA), at 485/528 nm excitation/emission. Promastigotes incubated with miltefosine (44.2 μM) were used as a positive control.
smiles,measurement,setting,value
"C=C[C@@H](c1cc(CC=C(C)C)ccc1O)c1cc(CC=C(C)C)c(OC)cc1O [Compound 3, connarin]",plasma membrane integrity (PI-positive parasites),[1],did not interfere with plasma membrane permeation
same,IC50,[2],20.5 µM
same,increase in neutral lipid levels in relation to the untreated control,[3],82.0%
same,CC50 at 72 h,Cytotoxicity assay (MTT),7.2 µg/mL and 18.3 µM
same,SI (Selectivity Index),[4]; CC50 macrophages / IC50 L. amazonensis amastigotes,6.3
same,IC50,"[4]; Leishmania amazonensis, Peritoneal macrophage, intracellular, 72 h",1.13 µg/mL and 2.9 µM
same,IC50,[5],4.5 µg/mL and 11.4 µM
same,ROS level,[6],no alteration in the ROS level
